Measured values reported in patent US6914045B2, “Glycopeptide antibiotics” (Wyeth Holdings Corporation, priority 2001, dated 2005).
In brackets after ≈: the same amount, converted by molar mass. Each block holds one molecule with its values, some of them ahead of it. Numbered stars: 1 amine (or outer) side, 2 acyl side, 3 side chain; on linkers, the order of the positions; unused ones are H or OH. Square brackets hold non-standard residues; d marks the D form. Peptide text beside a SMILES is read from it. ξ: configuration not given here. X3 = CC1(C)OCC2OC(N3C(=N)NCC3C(O)C(N[*:1])C(=O)[*:2])C3OC(C)(C)OC3C2O1; ξEnduracididine(βξ-OH,4'ξ) = N=C1NCC(C(O)C(N)C(=O)O)N1; ξPhe(βξ-Me) = CC(c1ccccc1)C(N)C(=O)O

Tests used:
Experiment in all cases: in vitro antibacterial evaluation, MIC by broth dilution
Assay type in all cases: cell-based
Enterococcus sp. = details: broth dilution, 18 hours at 35° C.
How it was run: (§1)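 Test organisms, which included recent clinical isolates resistant to methicillin, penicillin and/or vancomycin, were inoculated at 5×10^5 CFU/mL into Muller-Hinton II […] containing antibiotic at 64-0.06 μg/mL. Minimum inhibitory concentrations were then read as the lowest level inhibiting growth.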

Staphylococcus sp. = details: broth dilution, 18 hours at 35° C.
How it was run: as §1

Streptococcus sp. = details: broth dilution, 18 hours at 35° C.
How it was run: as §1

Escherichia coli = details: 18 hours at 35° C.

MIC Enterococcus avium (GC 4558) (Enterococcus sp.): 64 µg/mL (≈ 43.8 µM)
MIC Enterococcus faecalis (ATCC 29212) (Enterococcus sp.): >128 µg/mL
MIC Enterococcus faecalis (GC 2242) (Enterococcus sp.): >128 µg/mL
MIC Enterococcus faecalis (GC 2691) (Enterococcus sp.): >128 µg/mL
MIC Enterococcus faecalis (GC 3059) (Enterococcus sp.): >128 µg/mL
MIC Enterococcus faecalis (GC 4552) (Enterococcus sp.): >128 µg/mL
MIC Enterococcus faecalis (GC 4553) (Enterococcus sp.): 128 µg/mL (≈ 87.7 µM)
MIC Enterococcus faecalis (GC 4554) (Enterococcus sp.): >128 µg/mL
MIC Enterococcus faecalis (GC 6189) (Enterococcus sp.): >128 µg/mL
MIC Enterococcus faecium (GC 2243) (Enterococcus sp.): >128 µg/mL
MIC Enterococcus faecium (GC 4556) (Enterococcus sp.): >128 µg/mL
MIC Enterococcus faecium (GC 4557) (Enterococcus sp.): 128 µg/mL (≈ 87.7 µM)
MIC Enterococcus faecalis (ATCC 29212) (Enterococcus sp.; strain ATCC 29212): >128 µg/mL
MIC Enterococcus faecalis (GC 2242) (Enterococcus sp.; strain GC 2242): >128 µg/mL
MIC Enterococcus faecium (GC 2243) (Enterococcus sp.; strain GC 2243): >128 µg/mL
MIC Enterococcus faecalis (GC 2691) (Enterococcus sp.; strain GC 2691): >128 µg/mL
MIC Enterococcus faecalis (GC 3059) (Enterococcus sp.; strain GC 3059): >128 µg/mL
MIC Enterococcus faecalis (GC 4552) (Enterococcus sp.; strain GC 4552): >128 µg/mL
MIC Enterococcus faecalis (GC 4553) (Enterococcus sp.; strain GC 4553): 128 µg/mL (≈ 87.7 µM)
MIC Enterococcus faecalis (GC 4554) (Enterococcus sp.; strain GC 4554): >128 µg/mL
MIC Enterococcus faecium (GC 4556) (Enterococcus sp.; strain GC 4556): >128 µg/mL
MIC Enterococcus faecium (GC 4557) (Enterococcus sp.; strain GC 4557): 128 µg/mL (≈ 87.7 µM)
MIC Enterococcus avium (GC 4558) (Enterococcus sp.; strain GC 4558): 64 µg/mL (≈ 43.8 µM)
MIC Enterococcus faecalis (GC 6189) (Enterococcus sp.; strain GC 6189): >128 µg/mL
MIC Coagulase Negative Staphylococcus (GC 4547) (Staphylococcus sp.): >128 µg/mL
MIC Coagulase Negative Staphylococcus (GC 4548) (Staphylococcus sp.): >128 µg/mL
MIC Coagulase Negative Staphylococcus (GC 4549) (Staphylococcus sp.): >128 µg/mL
MIC Coagulase Negative Staphylococcus (GC 4551) (Staphylococcus sp.): >128 µg/mL
MIC Coagulase Negative Staphylococcus (GC 6257) (Staphylococcus sp.): >128 µg/mL
MIC Staphylococcus aureus (ATCC 29213) (Staphylococcus sp.): >128 µg/mL
MIC Staphylococcus aureus (GC 1131) (Staphylococcus sp.): >128 µg/mL
MIC Staphylococcus aureus (GC 3051) (Staphylococcus sp.): >128 µg/mL
MIC Staphylococcus aureus (GC 3053) (Staphylococcus sp.): >128 µg/mL
MIC Staphylococcus aureus (GC 4541) (Staphylococcus sp.): >128 µg/mL
MIC Staphylococcus aureus (GC 4542) (Staphylococcus sp.): >128 µg/mL
MIC Staphylococcus aureus (GC 4544) (Staphylococcus sp.): >128 µg/mL
MIC Staphylococcus aureus (GC 4545) (Staphylococcus sp.): >128 µg/mL
MIC Staphylococcus aureus-SMITH (GC 4543) (Staphylococcus sp.): >128 µg/mL
MIC Staphylococcus aureus (ATCC 29213) (Staphylococcus sp.; strain ATCC 29213): >128 µg/mL
MIC Staphylococcus aureus (GC 1131) (Staphylococcus sp.; strain GC 1131): >128 µg/mL
MIC Staphylococcus aureus (GC 3051) (Staphylococcus sp.; strain GC 3051): >128 µg/mL
MIC Staphylococcus aureus (GC 3053) (Staphylococcus sp.; strain GC 3053): >128 µg/mL
MIC Staphylococcus aureus (GC 4541) (Staphylococcus sp.; strain GC 4541): >128 µg/mL
MIC Staphylococcus aureus (GC 4542) (Staphylococcus sp.; strain GC 4542): >128 µg/mL
MIC Staphylococcus aureus-SMITH (GC 4543) (Staphylococcus sp.; strain GC 4543): >128 µg/mL
MIC Staphylococcus aureus (GC 4544) (Staphylococcus sp.; strain GC 4544): >128 µg/mL
MIC Staphylococcus aureus (GC 4545) (Staphylococcus sp.; strain GC 4545): >128 µg/mL
MIC Coagulase Negative Staphylococcus (GC 4547) (Staphylococcus sp.; strain GC 4547): >128 µg/mL
MIC Coagulase Negative Staphylococcus (GC 4548) (Staphylococcus sp.; strain GC 4548): >128 µg/mL
MIC Coagulase Negative Staphylococcus (GC 4549) (Staphylococcus sp.; strain GC 4549): >128 µg/mL
MIC Coagulase Negative Staphylococcus (GC 4551) (Staphylococcus sp.; strain GC 4551): >128 µg/mL
MIC Coagulase Negative Staphylococcus (GC 6257) (Staphylococcus sp.; strain GC 6257): >128 µg/mL
MIC Streptococcus agalactiae (GC 4564) (Streptococcus sp.): >128 µg/mL
MIC Streptococcus pneumoniae (ATCC 6301) (Streptococcus sp.): 128 µg/mL (≈ 87.7 µM)
MIC Streptococcus pneumoniae (GC 1894) (Streptococcus sp.): 64 µg/mL (≈ 43.8 µM)
MIC Streptococcus pneumoniae (GC 4565) (Streptococcus sp.): 128 µg/mL (≈ 87.7 µM)
MIC Streptococcus pyogenes (GC 4563) (Streptococcus sp.): >128 µg/mL
MIC Streptococcus pneumoniae (ATCC 6301) (Streptococcus sp.; strain ATCC 6301): 128 µg/mL (≈ 87.7 µM)
MIC Streptococcus pneumoniae (GC 1894) (Streptococcus sp.; strain GC 1894): 64 µg/mL (≈ 43.8 µM)
MIC Streptococcus pyogenes (GC 4563) (Streptococcus sp.; strain GC 4563): >128 µg/mL
MIC Streptococcus agalactiae (GC 4564) (Streptococcus sp.; strain GC 4564): >128 µg/mL
MIC Streptococcus pneumoniae (GC 4565) (Streptococcus sp.; strain GC 4565): 128 µg/mL (≈ 87.7 µM)
MIC Escherichia coli (ATCC 25922) (Escherichia coli): >128 µg/mL
MIC Escherichia coli (GC 4559) (Escherichia coli): >128 µg/mL
MIC Escherichia coli (GC 4560) (Escherichia coli): 32 µg/mL (≈ 21.9 µM)
Compound: CC(c1ccccc1)C1NC(=O)CNC(=O)C(CO)NC(=O)C(CC2CNC(=N)N2C2OC(CO)C(O)C(O)C2O)NC(=O)C(CC2CNC(=N)N2)NC(=O)C(Cc2ccc(OC3OC(CO)C(OC4OC(CO)C(O)C(O)C4OCc4ccc(OCc5ccccc5)cc4)C(O)C3O)cc2)NC1=O (stereo not drawn) [Example 246c]
MIC Staphylococcus haemolyticus (GC 4546) (Staphylococcus sp.): >128 µg/mL
MIC Staphylococcus haemolyticus (GC 4546) (Staphylococcus sp.; strain GC 4546): >128 µg/mL

MIC Enterococcus avium (GC 4558) (Enterococcus sp.): >64 µg/mL
MIC Enterococcus faecalis (ATCC 29212) (Enterococcus sp.): >64 µg/mL
MIC Enterococcus faecalis (GC 2242) (Enterococcus sp.): >64 µg/mL
MIC Enterococcus faecalis (GC 2691) (Enterococcus sp.): >64 µg/mL
MIC Enterococcus faecalis (GC 3059) (Enterococcus sp.): >64 µg/mL
MIC Enterococcus faecalis (GC 4552) (Enterococcus sp.): >64 µg/mL
MIC Enterococcus faecalis (GC 4553) (Enterococcus sp.): >64 µg/mL
MIC Enterococcus faecalis (GC 4554) (Enterococcus sp.): >64 µg/mL
MIC Enterococcus faecalis (GC 6189) (Enterococcus sp.): >64 µg/mL
MIC Enterococcus faecium (GC 2243) (Enterococcus sp.): >64 µg/mL
MIC Enterococcus faecium (GC 4556) (Enterococcus sp.): >64 µg/mL
MIC Enterococcus faecium (GC 4557) (Enterococcus sp.): >64 µg/mL
MIC Coagulase Negative Staphylococcus (GC 4547) (Staphylococcus sp.): >64 µg/mL
MIC Coagulase Negative Staphylococcus (GC 4548) (Staphylococcus sp.): >64 µg/mL
MIC Coagulase Negative Staphylococcus (GC 4549) (Staphylococcus sp.): >64 µg/mL
MIC Coagulase Negative Staphylococcus (GC 4551) (Staphylococcus sp.): >64 µg/mL
MIC Coagulase Negative Staphylococcus (GC 6257) (Staphylococcus sp.): >64 µg/mL
MIC Staphylococcus aureus (ATCC 29213) (Staphylococcus sp.): >64 µg/mL
MIC Staphylococcus aureus (GC 1131) (Staphylococcus sp.): >64 µg/mL
MIC Staphylococcus aureus (GC 3051) (Staphylococcus sp.): >64 µg/mL
MIC Staphylococcus aureus (GC 3053) (Staphylococcus sp.): >64 µg/mL
MIC Staphylococcus aureus (GC 4541) (Staphylococcus sp.): >64 µg/mL
MIC Staphylococcus aureus (GC 4542) (Staphylococcus sp.): >64 µg/mL
MIC Staphylococcus aureus (GC 4544) (Staphylococcus sp.): >64 µg/mL
MIC Staphylococcus aureus (GC 4545) (Staphylococcus sp.): >64 µg/mL
MIC Staphylococcus aureus-SMITH (GC 4543) (Staphylococcus sp.): >64 µg/mL
MIC Streptococcus agalactiae (GC 4564) (Streptococcus sp.): >64 µg/mL
MIC Streptococcus pneumoniae (ATCC 6301) (Streptococcus sp.): >64 µg/mL
MIC Streptococcus pneumoniae (GC 1894) (Streptococcus sp.): >64 µg/mL
MIC Streptococcus pneumoniae (GC 4565) (Streptococcus sp.): >64 µg/mL
MIC Streptococcus pyogenes (GC 4563) (Streptococcus sp.): >64 µg/mL
MIC Escherichia coli (ATCC 25922) (Escherichia coli): >64 µg/mL
MIC Escherichia coli (GC 4559) (Escherichia coli): >64 µg/mL
MIC Escherichia coli (GC 4560) (Escherichia coli): >64 µg/mL
Compound: CC(c1ccccc1)C1NC(=O)CNC(=O)C(CO)NC(=O)C(C(O)C2CNC(=N)N2C2OC3COC(C)(C)OC3C3OC(C)(C)OC32)NC(=O)C(C(O)C2CNC(=N)N2)NC(=O)C(Cc2ccc(O)cc2)NC1=O (stereo not drawn) [Example 247] (cyclo(G[ξPhe(βξ-Me)]Y[ξEnduracididine(βξ-OH,4'ξ)][X3]S); configuration not given here)
MIC Staphylococcus haemolyticus (GC 4546) (Staphylococcus sp.): >64 µg/mL
